Reference: ChEMBL document CHEMBL2176875, “Ago-allosteric modulators of human glucagon-like peptide 2 receptor” (Bioorg Med Chem Lett, 2012)
The source made the active and inactive calls. The rule behind the calls is not given here.

Key:
[1] = target: T1, Glucagon-like peptide 2 receptor (Homo sapiens) (UniProt O95838); assay: Positive ago-allosteric modulation of GLP2R overexpressed in human SE302 cells assessed as increase in intracellular cAMP level at 1 to 10 uM after 30 mins in presence of GLP2 (11 to 33); assay type: functional, cell-based
T1 sequence (whole entry): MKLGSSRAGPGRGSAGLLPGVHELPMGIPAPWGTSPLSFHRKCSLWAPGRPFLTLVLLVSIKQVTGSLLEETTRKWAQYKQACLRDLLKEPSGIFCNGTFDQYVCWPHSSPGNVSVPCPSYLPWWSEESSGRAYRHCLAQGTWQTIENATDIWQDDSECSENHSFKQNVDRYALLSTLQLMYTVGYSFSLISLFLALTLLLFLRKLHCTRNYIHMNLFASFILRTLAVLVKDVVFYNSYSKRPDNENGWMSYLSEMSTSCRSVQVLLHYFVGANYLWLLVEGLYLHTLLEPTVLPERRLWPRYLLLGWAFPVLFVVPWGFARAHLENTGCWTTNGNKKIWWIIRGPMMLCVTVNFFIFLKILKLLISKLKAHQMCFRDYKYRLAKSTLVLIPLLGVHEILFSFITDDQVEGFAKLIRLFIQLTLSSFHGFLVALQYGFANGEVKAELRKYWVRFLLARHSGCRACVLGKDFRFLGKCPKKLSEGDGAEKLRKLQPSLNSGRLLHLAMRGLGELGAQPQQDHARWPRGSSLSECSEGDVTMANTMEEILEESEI

[2] = target: T1, Glucagon-like peptide 2 receptor (Homo sapiens); assay: Positive ago-allosteric modulation of GLP2R overexpressed in human SE302 cells assessed as increase in intracellular cAMP level at 1 to 10 uM after 30 mins in presence of GLP2 (3 to 33); assay type: functional, cell-based
[3] = target: T1, Glucagon-like peptide 2 receptor (Homo sapiens); assay: Positive ago-allosteric modulation of GLP2R overexpressed in human SE302 cells assessed as upward shift in GLP2-induced placental alkaline phosphatase activation measured on day 3 by Alamar Blue assay; assay type: cell-based
[4] = target: T1, Glucagon-like peptide 2 receptor (Homo sapiens); assay: Positive ago-allosteric modulation of GLP2R overexpressed in human SE302 cells assessed as increase in intracellular cAMP level at 10 uM after 30 mins in presence of GLP2; assay type: functional, cell-based
[5] = target: T1, Glucagon-like peptide 2 receptor (Homo sapiens); assay: Positive ago-allosteric modulation of GLP2R overexpressed in human SE302 cells assessed as leftward shift in GLP2-induced placental alkaline phosphatase activation measured on day 3 by Alamar Blue assay; assay type: cell-based
[6] = target: T1, Glucagon-like peptide 2 receptor (Homo sapiens); assay: Positive ago-allosteric modulation of GLP2R overexpressed in human SE302 cells assessed as decrease in GLP2 (11 to 33) EC50 at 10 uM measured on day 3 by Alamar Blue assay relative to control; assay type: cell-based
[7] = target: T1, Glucagon-like peptide 2 receptor (Homo sapiens); assay: Positive ago-allosteric modulation of GLP2R overexpressed in human SE302 cells assessed as decrease in GLP2 (3 to 33) EC50 at 10 uM measured on day 3 by Alamar Blue assay relative to control; assay type: cell-based
[8] = target: T1, Glucagon-like peptide 2 receptor (Homo sapiens); assay: Positive ago-allosteric modulation of GLP2R overexpressed in human SE302 cells assessed as decrease in GLP2 (11 to 33) EC50 at 1 uM measured on day 3 by Alamar Blue assay relative to control; assay type: cell-based
[9] = target: T1, Glucagon-like peptide 2 receptor (Homo sapiens); assay: Positive ago-allosteric modulation of GLP2R overexpressed in human SE302 cells assessed as decrease in GLP2 (3 to 33) EC50 at 1 uM measured on day 3 by Alamar Blue assay relative to control; assay type: cell-based
[10] = target: T1, Glucagon-like peptide 2 receptor (Homo sapiens); assay: Positive ago-allosteric modulation of GLP2R overexpressed in human SE302 cells assessed as change in GLP2 EC50 measured on day 3 by Alamar Blue assay relative to control; assay type: cell-based
[11] = target: T1, Glucagon-like peptide 2 receptor (Homo sapiens); assay: Positive ago-allosteric modulation of GLP2R overexpressed in human SE302 cells assessed as increase in GLP2 (11 to 33)-induced placental alkaline phosphatase activation at 10 uM measured on day 3 by Alamar Blue assay relative to control; assay type: cell-based
[12] = target: T1, Glucagon-like peptide 2 receptor (Homo sapiens); assay: Positive ago-allosteric modulation of GLP2R overexpressed in human SE302 cells assessed as increase in GLP2 (11 to 33)-induced placental alkaline phosphatase activation at 1 uM measured on day 3 by Alamar Blue assay relative to control; assay type: cell-based
[13] = target: T1, Glucagon-like peptide 2 receptor (Homo sapiens); assay: Positive ago-allosteric modulation of GLP2R overexpressed in human SE302 cells assessed as increase in GLP2 (3 to 33)-induced placental alkaline phosphatase activation at 10 uM measured on day 3 by Alamar Blue assay relative to control; assay type: cell-based
[14] = target: T1, Glucagon-like peptide 2 receptor (Homo sapiens); assay: Positive ago-allosteric modulation of GLP2R overexpressed in human SE302 cells assessed as increase in GLP2 (3 to 33)-induced placental alkaline phosphatase activation at 1 uM measured on day 3 by Alamar Blue assay relative to control; assay type: cell-based
[15] = target: T1, Glucagon-like peptide 2 receptor (Homo sapiens); assay: Positive ago-allosteric modulation of GLP2R overexpressed in human SE302 cells assessed as increase in GLP2 (11 to 33)-induced placental alkaline phosphatase activation at 10 uM measured on day 3 by Alamar Blue assay relative to GLP2; assay type: cell-based
[16] = target: T1, Glucagon-like peptide 2 receptor (Homo sapiens); assay: Positive ago-allosteric modulation of GLP2R overexpressed in human SE302 cells assessed as GLP2 (3 to 33)-induced placental alkaline phosphatase activation at 10 uM measured on day 3 by Alamar Blue assay relative to GLP2; assay type: cell-based
[17] = target: T1, Glucagon-like peptide 2 receptor (Homo sapiens); assay: Positive ago-allosteric modulation of GLP2R overexpressed in human SE302 cells assessed as increase in GLP2-induced placental alkaline phosphatase activation at 10 uM measured on day 3 by Alamar Blue assay relative to control; assay type: cell-based
[18] = target: T1, Glucagon-like peptide 2 receptor (Homo sapiens); assay: Positive ago-allosteric modulation of GLP2R overexpressed in human SE302 cells assessed as increase in intracellular cAMP level at 10 to 100 uM after 30 mins; assay type: functional, cell-based
[19] = target: Glucagon-like peptide 1 receptor (Homo sapiens) (UniProt P43220); assay: Positive ago-allosteric modulation of GLP1R overexpressed in human SE302 cells assessed as increase in intracellular cAMP level at 10 to 100 uM after 30 mins; assay type: functional, cell-based
Glucagon-like peptide 1 receptor (Homo sapiens), sequence (P43220 whole entry): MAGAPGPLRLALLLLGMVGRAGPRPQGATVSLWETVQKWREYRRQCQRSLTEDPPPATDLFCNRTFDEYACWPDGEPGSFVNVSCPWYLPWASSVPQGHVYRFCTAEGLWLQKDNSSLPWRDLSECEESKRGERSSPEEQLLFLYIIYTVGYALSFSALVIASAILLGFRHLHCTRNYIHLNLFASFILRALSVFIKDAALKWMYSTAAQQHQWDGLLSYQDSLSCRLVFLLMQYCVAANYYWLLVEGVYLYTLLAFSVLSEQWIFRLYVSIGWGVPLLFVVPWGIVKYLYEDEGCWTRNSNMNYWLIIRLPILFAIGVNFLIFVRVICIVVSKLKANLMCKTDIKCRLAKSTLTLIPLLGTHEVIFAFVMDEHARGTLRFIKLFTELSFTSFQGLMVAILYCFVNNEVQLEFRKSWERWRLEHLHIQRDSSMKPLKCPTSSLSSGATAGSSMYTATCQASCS

[20] = target: T1, Glucagon-like peptide 2 receptor (Homo sapiens); assay: Positive ago-allosteric modulation of GLP2R overexpressed in human SE302 cells assessed as placental alkaline phosphatase activation measured on day 3 by Alamar Blue assay; assay type: cell-based
[21] = target: T1, Glucagon-like peptide 2 receptor (Homo sapiens); assay: Positive ago-allosteric modulation of GLP2R overexpressed in human SE302 cells assessed as placental alkaline phosphatase activation at 25 uM measured on day 3 by Alamar Blue assay relative to 100 pM GLP2; assay type: cell-based
[22] = target: T1, Glucagon-like peptide 2 receptor (Homo sapiens); assay: Positive ago-allosteric modulation of GLP2R overexpressed in human SE302 cells assessed as placental alkaline phosphatase activation at 25 uM measured on day 3 by Alamar Blue assay relative to 10 pM GLP2; assay type: cell-based

- Activity [1]: Active
- Activity [2]: Active
- Activity [3]: Dose-dependent effect
- Activity [4]: Active
- Activity [5]: Dose-dependent effect
- fold change (FC) [6]: 17
- fold change (FC) [7]: 3.3
- fold change (FC) [8]: 3.4
- fold change (FC) [9]: 1.2
- Activity [10]: inactive
- %max [11]: 930%
- %max [12]: 490%
- %max [13]: 150%
- %max [14]: 110%
- Activity [15]: Active
- Activity [16]: Active
- Activity [17]: 10%
- Activity [18]: Active
- Activity [19]: inactive
- Activity [20]: inactive
- %max [21]: 55%
- %max [22]: 701%
Structure (SMILES): O/N=C(\CSc1ccccc1)c1cc(Cl)sc1Cl
